How the values were obtained:
[1] = test system: sorted sca1+ckit+ fetal-liver HSPCs; test: Defined T cell differentiation assay on adsorbed ligand, flow cytometry; assay type: cell-based, mouse
Description: FIG. 2a: Schematic for 2D coated DL4 assay, in which sorted E13.5 sca1+ckit+ fetal-liver HSPCs are seeded on coated DL4 ligand in standard 96-well flat bottom plates at 1000 cells/well density in 200 μl test media containing cytokines 25 ng/mL SCF, 5 ng/mL Flt3L and 1 ng/mL IL7; cells are re-fed on day 4 with fresh media containing cytokines; on day 7, cells are assayed for surface marker expression using flow cytometry.
Commercially available DL4-Fc was purchased and used for experiments from Sino Biologicals (Cedarlane Labs, Burlington, Ontario, Canada) or manufactured in-house as described below. DL4-Fc was diluted in chilled phosphate-buffered saline (PBS) at 10 μg/mL or […] and 50 μL/well was coated in standard tissue-culture 96-well plates overnight at 4° C. Wells were washed once with PBS prior to seeding cells to remove any unbound ligand from the wells. For certain experiments, wells were also coated overnight with 50 μL/well PBS containing DL4-Fc and VCAM-1-Fc (R&D) or fibronectin (Sigma) at concentrations described herein.
Sorted sca1+ckit+ HSPCs were cultured at 1000 cells/well (corresponding to 3.1×10^3 cells/cm^2) in DL4-coated 96-well plates in serum-free Iscove modified Dulbecco medium (Gibco, Rockville, MD) with 20% bovine serum albumin, insulin, and transferrin serum substitute (BIT; Stemcell Technologies), 1% GlutaMAX™ (Gibco) and 1 μg/mL low-density lipoproteins (Calbiochem, La Jolla, CA) [IMDM+BIT]. For positive control cultures, OP9 serum medium was used, composed of αMEM medium (Gibco) and 16% FBS (Hyclone™, GE Health). Serum-free αMEM+BIT medium was prepared exactly as IMDM+BIT medium except using αMEM (Gibco) as the base medium. OP9 serum medium, αMEM+BIT or IMDM+BIT serum free medium was added at 200 μL/well supplemented with 25 ng/mL Stem Cell Factor (SCF; R&D Systems, Minneapolis, MN), 5 ng/mL FMS-like Tyrosine Kinase 3 Ligand (Flt3L; R&D Systems) and 1 ng/mL Interleukin-7 (IL-7; R&D Systems) with a 50% medium exchange step at day 4 containing 2-fold concentrated cytokines as described previously^9. Design of Experiment (DOE) in silico modeling was performed using Design-Expert® (v10) using response surface method to investigate the combinatorial desirability of different concentrations of SCF, Flt3L and IL-7 for maximizing DN3 T-cell yield and minimizing the volume of IMDM+BIT medium. After DOE optimization, IMDM+BIT serum-free medium was added at 50 μL/well supplemented with 50 ng/mL SCF (R&D Systems), 10 ng/mL Flt3L (R&D Systems) and 10 ng/mL IL-7 (R&D Systems) unless described otherwise in the text with no medium exchange for the length of the assay. For the candidate factor screening in serum-free IMDM+BIT medium, the following proteins or small molecules were used at the concentrations listed: JAK inhibitor I (50 nM; EMD Millipore), IL-11 (10, 50, and 100 ng/mL; R&D Systems), IL-6 (10, 50, and 100 ng/mL; R&D Systems), IL-6R (100 ng/mL; R&D Systems), Ccl25 (1.5 μg/mL; R&D Systems), IL-7 (50, 100, and 200 ng/mL; R&D Systems), SDF1α (Cxcl12; 200 ng/mL; R&D Systems), and Leukemia Inhibitory Factor (LIF; 0.1, 1, and 10 ng/mL; EMD Millipore).
Surface marker staining was performed with conjugated rat anti-mouse antibodies (BD Biosciences, San Jose, CA, Table 1). All samples were analyzed on a FACSCanto™ or FACS LSRFortessa™ flow cytometer (BD Biosciences). At day 7 of culture, cells were lifted off the plate with multiple HF rinses, stained at 1:400 dilution with antibodies against CD45, CD25, CD44, CD90, CD11 b and CD19 for 20 minutes on ice. Human progenitor T-cells were stained at 1:100 dilution with antibodies against CD34, CD7, CD5 and CD45RA. Integrin expression was analyzed using antibodies against α4, β1, and β7 integrin subunits on Sca-1+cKit+ mouse HSPCs and CD34+ human umbilical blood cells. […]

[2] = test system: double negative (DN; CD4− CD8−) thymocytes; test: DL4-Fc ligand binding to thymocytes
Description: Progenitor T cell development in the thymus is characterized by four sequential stages commonly referred to as DN1, DN2, DN3 and DP (DN=double negative and DP=double positive for CD4 and CD8 expression). An ideal defined progenitor T cell differentiation assay should aim to support the expansion of DN3 T cells that are exclusively committed to the T lymphoid lineage. […] Conventional in vitro T cell differentiation is carried out on an OP9 stromal feeder layer in serum-containing medium. The obvious first step in developing a defined assay for T cell differentiation is to establish conditions that eliminate the requirements for both serum and feeders. To replace the OP9 feeder layer, DL4-Fc protein was generated and the purity and functionality of the ligand to bind DN T cells and not DP T cells was verified, as these cell types differentially express the Notch-1 receptor (FIGS. 1a-c). […] Cultures were re-fed after four days and analyzed for progenitor T cell surface markers after seven days (FIG. 2a). Parallel cultures were carried out on untreated surfaces (negative control) and OP9-DL4 stromal co-culture (positive control based on which SCF, Flt3L and IL-7 supplementation concentrations were determined^9). […] The level of lineage skewing to non-T cell fates was also quantified in the absence of Notch ligand in order to assess the default cell differentiation supported by all medium types.

[3] = test system: human umbilical cord blood-derived CD34+ HSPCs; test: Human CD34+ HSPC progenitor T cell differentiation on coated plates; assay type: cell-based; settings: serum-free IMDM+BIT
Description: For human HSPC culture, umbilical cord blood samples were collected from consenting donors according to ethically approved procedures at Mount Sinai Hospital. CD34+ cells were isolated from the red blood cell (RBC)-lysed cord blood fraction using the EasySep™ Human CD34 Positive Selection Kit (Stemcell Technologies) according to the manufacturer's instructions. Flow cytometry was performed after every enrichment to ensure CD34 frequencies were greater than 95%. CD34+ HSPCs were cultured for 14 days on DL4 and VCAM-1 coated 96-well plates at higher seeding densities of 12,500 HSPCs/cm^2 (corresponding to 4000 cells/well). One complete medium exchange was performed at day 7 of culture and cells were returned to the same DL4 and VCAM-1 coated plates. For certain experiments, DL4-Fc was coated alone or with RetroNectin® (Takara Shuzo) or fibronectin (Sigma Aldrich) as described in the text. CD34+ cells were cultured in serum-free Iscove modified Dulbecco medium (Gibco) with 20% bovine serum albumin, insulin, and transferrin serum substitute (BIT; Stemcell Technologies), 1% GlutaMAX™ (Gibco) and 1 μg/mL low-density lipoproteins (Calbiochem). The medium was added at 50 μL/well supplemented with 100 ng/mL SCF (R&D Systems, Minneapolis, MN), 100 ng/mL Flt3L (R&D Systems), 100 ng/mL Tpo (R&D Systems) and 100 ng/mL IL-7 (R&D Systems).
Surface marker staining was performed with conjugated rat anti-mouse antibodies (BD Biosciences, San Jose, CA, Table 1). All samples were analyzed on a FACSCanto™ or FACS LSRFortessa™ flow cytometer (BD Biosciences). At day 7 of culture, cells were lifted off the plate with multiple HF rinses, stained at 1:400 dilution with antibodies against CD45, CD25, CD44, CD90, CD11 b and CD19 for 20 minutes on ice. […] Integrin expression was analyzed using antibodies against α4, β1, and β7 integrin subunits on Sca-1+cKit+ mouse HSPCs and CD34+ human umbilical blood cells. […] Flow data was analyzed and batch processed using FlowJo® software and further analyzed in Python (version 2.7.10).

DL4: Notch ligand Delta-like-4 extracellular domain fused to the Fc region of human IgG1
DN3 frequency at 20 μg/mL immobilized ligand ([1]; 20 μg/mL immobilized, no soluble ligand, day 7): generated DN3 cells at equivalent frequencies as in the 10 μg/mL coated DL4 control | minimum concentration of adsorbed DL4 that supported DN3 cell generation ([1]; IMDM+BIT serum-free medium, 7 days of culture): 7.5 µg/mL | binding to DN vs. DP thymocytes [2]: binding double negative (DN; CD4− CD8−) and not double positive (DP, CD4+CD8+) thymocytes | generation of CD7+CD34+ cells ([3]; DL4 alone): can generate CD7+CD34+ cells | generation of later stage progenitor T cells from CD34+ HSPCs ([3]; 9 or 14 days, matrix proteins in conjunction with DL4): insufficient to drive these progenitor cells to later stages of T cell development
